This is an account of results in ChEMBL document CHEMBL3102853, “Carbonic anhydrase inhibitors. Synthesis, and molecular structure of novel series N-substituted N'-(2-arylmethylthio-4-chloro-5-methylbenzenesulfonyl)guanidines and their inhibition of human cytosolic isozymes I and II and the transmembrane tumor-associated isozymes IX and XII” (Eur J Med Chem, 2014).

Activity calls are given as the source filed them. The rule behind the calls is not given here.

Experiment [1] in a line: Cytotoxicity against human Hs 578T cells at 10 uM. In kind it is functional. As to conditions: read-out: GI.
The subject of experiment [2] is NCI-H460. The experiment can be described thus: Cytotoxicity against human NCI-H460 cells at 10 uM. In kind it is functional. As to conditions: read-out: GI.
Experiment [3] has as its system A498. The experiment can be described thus: Cytotoxicity against human A498 cells at 10 uM. In kind it is functional. The conditions noted are these: read-out: GI.
Experiment [4] deals with LOX IMVI. Kind of experiment: Cytotoxicity against human LOXIMVI cells at 10 uM. In kind it is functional. The conditions noted are these: read-out: GI.
For experiment [5], the target named is Carbonic anhydrase 9 (Homo sapiens, UniProt Q16790).
Experiment [6] has as its system NCI/ADR-RES. Kind of experiment: Cytotoxicity against human NCI-ADR-RES cells at 10 uM. In kind it is functional.
Experiment [7] deals with HOP-92. The experiment can be described thus: Cytotoxicity against human HOP92 cells at 10 uM. In kind it is functional. As to conditions: read-out: GI.
Experiment [8] deals with OVCAR-3. Kind of experiment: Cytotoxicity against human OVCAR3 cells at 10 uM. In kind it is functional.
The subject of experiment [9] is HT-29. The experiment can be described thus: Cytotoxicity against human HT-29 cells at 10 uM. In kind it is functional.
The test system of experiment [10] is SNB-75. Kind of experiment: Cytotoxicity against human SNB75 cells at 10 uM. In kind it is functional. The conditions noted are these: read-out: GI.
Experiment [11] concerns PC-3. The experiment can be described thus: Cytotoxicity against human PC3 cells at 10 uM. In kind it is functional.
Experiment [12] deals with KM12. The experiment can be described thus: Cytotoxicity against human KM12 cells at 10 uM. In kind it is functional.
For experiment [13], the system named is SF-268. Kind of experiment: Cytotoxicity against human SF268 cells at 10 uM. In kind it is functional. The conditions noted are these: read-out: GI.
For experiment [14], the system named is SW-620. The experiment can be described thus: Cytotoxicity against human SW620 cells at 10 uM. In kind it is functional. As to conditions: read-out: GI.
Experiment [15] deals with SK-MEL-2. Kind of experiment: Cytotoxicity against human SK-MEL-2 cells at 10 uM. In kind it is functional.
Experiment [16] relates to UACC-62. The experiment can be described thus: Cytotoxicity against human UACC62 cells at 10 uM. In kind it is functional. As to conditions: read-out: GI.
Experiment [17] has as its system DU-145. The experiment can be described thus: Cytotoxicity against human DU145 cells at 10 uM. In kind it is functional.
The test system of experiment [18] is MCF7. The experiment can be described thus: Cytotoxicity against human MCF7 cells at 10 uM. In kind it is functional.
The subject of experiment [19] is T47D. Kind of experiment: Cytotoxicity against human T47D cells at 10 uM. The conditions noted are these: read-out: GI. In kind it is functional.
The test system of experiment [20] is A549. Kind of experiment: Cytotoxicity against human A549 cells at 10 uM. In kind it is functional.

Regarding `Cc1cc(S(=O)(=O)NC(=N)Nc2nnc(S(N)(=O)=O)s2)c(SCc2cccc3ccccc23)cc1Cl`, the inhibition of growth at 10 µM in experiment [1] is 15%; in [2], 3%; in [3], 48%; in experiment [4], 2%; in experiment [7], 3%; in experiment [10], 11%. The inhibition of growth at 10 µM in [13] was 4%; in experiment [14], 8%; in experiment [16] it was 2%; in [19] it was 17%. For the same compound, the Ki (usually a dissociation constant, usually derived from enzyme kinetics or from competition with a known ligand) in experiment [5] worked out at 9.4 nM. The “growth inhibition (GI)” value in experiment [6], in [8], in experiment [9], in experiment [11], in experiment [12] and in experiment [15] was “inactive” each time. Besides, the “growth inhibition (GI)” value in [17], in [18] and in [20] was “inactive” in each case.
For the compound `Cc1cc(S(=O)(=O)NC(=N)NCc2ccc(S(N)(=O)=O)cc2)c(SCc2cccc(C(F)(F)F)c2)cc1Cl`, in experiment [5], the inhibition constant (Ki) was determined as 17 nM.
Compound `Cc1cc(S(=O)(=O)NC(=N)Nc2nnc(S(N)(=O)=O)s2)c(SCc2ccc(C(F)(F)F)cc2)cc1Cl` yielded an inhibition constant (Ki) in experiment [5] of 10.3 nM.
